Converted amounts (≈) assume the structure as drawn.
Assays:
[1] = tested on: Mycobacterium tuberculosis; assay: Antimycobacterial activity against Mycobacterium tuberculosis H37Rv assessed as inhibition of bacterial growth by resazurin dye based fluorescence analysis; format: functional
[2] = tested on: Mycobacterium tuberculosis; assay: Potentiation of ethionamide induced antibacterial activity against Mycobacterium tuberculosis H37Rv expressing GFP incubated for 5 days by fluorescence based analysis; format: functional, organism-based; conditions: 120 h
[3] = tested on: Mycobacterium tuberculosis; assay: Antimycobacterial activity against Mycobacterium tuberculosis H37Rv infected in human THP-1 cells assessed as inhibition of bacterial growth; format: functional, organism-based

| SMILES | MIC [1] [µM] | EC50 [2] [nM] | IC50 [3] [nM] |
| --- | --- | --- | --- |
| O=S(=O)(NCCO)c1ccc(-c2nnn(Cc3ccc(F)cn3)n2)c(F)c1F | 0.1 (≈ 0.0414 µg/mL) | – | – |
| O=S(=O)(NCCO)c1ccc(-c2nnn(Cc3ccnnc3)n2)cc1 | 0.1 (≈ 0.0361 µg/mL) | – | – |
| COC(=O)CNS(=O)(=O)c1ccc(-c2nnn(Cc3ccc(F)cc3)n2)cc1 | 0.1 (≈ 0.0405 µg/mL) | – | – |
| O=S(=O)(NCCO)c1ccc(-c2nnn(Cc3cccnn3)n2)cc1 | 0.1 (≈ 0.0361 µg/mL) | – | – |
| O=C(CCC(F)(F)F)N1CCC2(CC1)CC(F)=NO2 | – | < 38 | 50 |
| O=C(CCC(F)(F)F)N1CCC(c2cccc(C(F)(F)F)n2)CC1 | – | < 150 | 10 |
| O=C(CCC(F)(F)F)N1CCC(c2cncc(C(F)(F)F)n2)CC1 | – | < 150 | 10 |
| O=C(CCC(F)(F)F)N1CCC(c2cncc(F)c2)CC1 | – | < 150 | 10 |
| N#CCNS(=O)(=O)c1ccc(-c2nnn(CC3CCCCO3)n2)cc1 (centres undefined) | 0.1 (≈ 0.0362 µg/mL) | – | – |
| NC(=O)CNS(=O)(=O)c1ccc(-c2nnn(Cc3ccc(F)cc3)n2)cc1Cl | 0.1 (≈ 0.0425 µg/mL) | – | – |
| O=C(CCC(F)(F)F)N1CCC(c2cncc(C(F)(F)F)c2)CC1 | – | < 150 | 10 |
| NC(=O)CNS(=O)(=O)c1ccc(-c2nnn(Cc3ccc(F)cc3)n2)cc1 | 0.1 (≈ 0.039 µg/mL) | – | – |
| O=C(CCC(F)(F)F)N1CCC(c2ccc(F)nc2F)CC1 | – | < 150 | 10 |
| CCOc1ccc(Cn2nnc(-c3ccc(S(=O)(=O)NCCO)cc3)n2)cc1 | 0.1 (≈ 0.0403 µg/mL) | – | – |
| O=S(=O)(NCCO)c1ccc(-c2nnn(Cc3ccc(C(F)(F)F)cc3)n2)cc1 | 0.1 (≈ 0.0427 µg/mL) | – | – |
| N#CCNS(=O)(=O)c1ccc(-c2nnn(Cc3cnccn3)n2)cc1 | 0.1 (≈ 0.0356 µg/mL) | – | – |
| O=C(CCC(F)(F)F)N1CCC(c2ccc(F)cn2)CC1 | – | < 150 | 10 |
| COc1ccc(C2CCN(C(=O)CCC(F)(F)F)CC2)cn1 | – | < 150 | 10 |
| N#CCNS(=O)(=O)c1ccc(-c2cn(Cc3ccncc3)nn2)cc1 | 0.1 (≈ 0.0354 µg/mL) | – | – |
| CC(c1ccc(F)cc1)n1nnc(-c2ccc(S(=O)(=O)NCC(N)=O)cc2)n1 (centres undefined) | 0.1 (≈ 0.0404 µg/mL) | – | – |
| O=S(=O)(NCCO)c1ccc(-c2cn(Cc3ccncc3)nn2)cc1 | 0.1 (≈ 0.0359 µg/mL) | – | – |
| COc1cc(-c2nnn(Cc3ccc(F)cc3)n2)ccc1S(=O)(=O)NCC(N)=O | 0.1 (≈ 0.042 µg/mL) | – | – |
| O=C(CCC(F)(F)F)N1CCC(c2cc(C(F)(F)F)ccn2)CC1 | – | < 150 | 10 |
| O=C(CCC(F)(F)F)N1CCC(c2ccnc(C(F)(F)F)c2)CC1 | – | < 150 | 10 |
| O=S(=O)(NCCO)c1ccc(-c2nnn(Cc3ccc(F)cn3)n2)c(F)c1 | 0.1 (≈ 0.0396 µg/mL) | – | – |
| COc1cc(-c2nnn(CC3CCC(F)(F)CC3)n2)ccc1S(=O)(=O)NCC(N)=O | 0.1 (≈ 0.0444 µg/mL) | – | – |

| SMILES | MIC [1] [µM] | EC50 [2] [nM] | IC50 [3] [nM] |
| --- | --- | --- | --- |
| Cc1cc(S(=O)(=O)NCCO)ccc1-c1nnn(Cc2ccc(F)cn2)n1 | 0.1 (≈ 0.0392 µg/mL) | – | – |
| O=S(=O)(NCCO)c1ccc(-c2nnn(CC3CCCOC3)n2)cc1 (centres undefined) | 0.1 (≈ 0.0367 µg/mL) | – | – |
| Cc1cc(-c2nnn(CC3CCCCO3)n2)ccc1S(=O)(=O)NCCO (centres undefined) | 0.1 (≈ 0.0381 µg/mL) | – | – |
| Cc1ccc(Cn2cc(-c3ccc(S(=O)(=O)NCCO)cc3)nn2)nc1 | 0.1 (≈ 0.0373 µg/mL) | – | – |
| COc1ccc(Cn2nnc(-c3ccc(S(=O)(=O)NCCO)c(OC)c3)n2)nc1 | 0.1 (≈ 0.042 µg/mL) | – | – |
| N#CNS(=O)(=O)c1ccc(-c2nnn(Cc3ccc(F)cn3)n2)cc1 | 0.1 (≈ 0.0359 µg/mL) | – | – |
| CC1=NOC2(CCN(C(=O)CCC(F)(F)F)CC2)C1 | – | < 38 | 50 |
| O=S(=O)(NCCO)c1ccc(-c2nnn(CC3CCCCO3)n2)c(F)c1 (centres undefined) | 0.1 (≈ 0.0385 µg/mL) | – | – |
| CNS(=O)(=O)c1ccc(-c2nnn(Cc3ccc(C#N)cc3)n2)cc1 | 0.1 (≈ 0.0354 µg/mL) | – | – |
| COc1cc(-c2nnn(Cc3ccncc3)n2)ccc1S(=O)(=O)NCC#N | 0.1 (≈ 0.0385 µg/mL) | – | – |
| N#CCNS(=O)(=O)c1ccc(-c2nnn(Cc3ccc(F)cc3)n2)cc1 | 0.1 (≈ 0.0372 µg/mL) | – | – |
| COc1cc(-c2nnn(C(C)c3ccc(F)cc3)n2)ccc1S(=O)(=O)NCC(N)=O (centres undefined) | 0.1 (≈ 0.0434 µg/mL) | – | – |
| O=C(CCC(F)(F)F)N1CCC(c2ccnc(F)c2)CC1 | – | < 150 | 10 |
| N#Cc1ccc(Cn2cc(-c3ccc(S(=O)(=O)NCCO)cc3)nn2)cc1 | 0.1 (≈ 0.0383 µg/mL) | – | – |
| N#CCNS(=O)(=O)c1ccc(-c2nnn(CC3CCOCC3)n2)cc1 | 0.1 (≈ 0.0362 µg/mL) | – | – |
| O=S(=O)(NCCO)c1ccc(-c2nnn(Cc3ccc(F)cn3)n2)c(Cl)c1 | 0.1 (≈ 0.0413 µg/mL) | – | – |
| Cc1cnc(Cn2nnc(-c3ccc(S(=O)(=O)NCC#N)cc3)n2)cn1 | 0.1 (≈ 0.037 µg/mL) | – | – |
| NC(=O)CNS(=O)(=O)c1ccc(-c2nnn(CC3CCCCO3)n2)cc1 (centres undefined) | 0.1 (≈ 0.038 µg/mL) | – | – |
| COc1cc(-c2nnn(Cc3ccc(F)cn3)n2)ccc1S(=O)(=O)NCCO | 0.1 (≈ 0.0408 µg/mL) | – | – |
| Cc1cc(C2CCN(C(=O)CCC(F)(F)F)CC2)ccn1 | – | < 150 | 10 |
| O=C(CCC(F)(F)F)N1CCC(c2ccc(F)nc2)CC1 | – | < 150 | 10 |
| O=C(CCC(F)(F)F)N1CCC(c2cccc(F)n2)CC1 | – | < 150 | 10 |
| CC(C)COC1=NOC2(CCN(C(=O)CCC(F)(F)F)CC2)C1 | – | < 38 | 50 |
| O=S(=O)(NCCO)c1ccc(-c2nnn(CC3CCCCC3)n2)cc1F | 0.1 (≈ 0.0383 µg/mL) | – | – |
| N#CC1=NOC2(CCN(C(=O)CCC(F)(F)F)CC2)C1 | – | < 38 | 50 |
| Cc1cc(-c2nnn(Cc3ccc(F)cn3)n2)ccc1S(=O)(=O)NCCO | 0.1 (≈ 0.0392 µg/mL) | – | – |

— ChEMBL document CHEMBL5244273, “Tuberculosis: An Overview of the Immunogenic Response, Disease Progression, and Medicinal Chemistry Efforts in the Last Decade toward the Development of Potential Drugs for Extensively Drug-Resistant Tuberculosis Strains” (J Med Chem, 2021)
